Reference: article PMC12434521, “Characterization of Next-Generation Inhibitors for the Inward-Rectifier Potassium Channel Kir2.1: Discovery of VU6080824” (ACS Medicinal Chemistry Letters, 2025)
Like-named read-outs stand apart in the source and are kept apart here.

Assay: Rat PK PBL cassette (i.v.)
Type: in vivo, Sprague-Dawley rat
Settings: for Kp at 0.25 h: brain and plasma, read-out: Kp (total brain to plasma ratio); for Kp at 0.25 h / AUC / clearance / half-life / MRT / Vd / Kp (total brain to plasma ratio) / CLp / Elim. t1/2 / Vss: male SD rat, 0.2 mg/kg i.v. cassette; for Kp at 0.25 h / Kp (total brain to plasma ratio): 0.25 time point (15 min post dosing); for AUC / clearance / half-life / MRT / Vd / CLp / Elim. t1/2 / Vss: n = 1; for clearance: read-out: CLp; for half-life: read-out: Elim. t1/2 (converted); for Vd: read-out: Vss
Text: While ML133 has found use as a Kir2.1 tool molecule across many disease models, the in vivo PK of this and related compounds within the dibenzylamine chemotype have not previously been characterized. As a highly efficient method for profiling the PK of a compound set, we therefore examined ML133 (alongside 9 additional next-generation Kir2.1 inhibitors) in our rat PK PBL cassette dosing platform (Table ). − From this experimental setup, administration of a 4-compound bolus dose, plus a standard control, can be used to determine a variety of PK parameters in a high-throughput fashion. Specifically, Sprague–Dawley (SD) rats were given 0.2 mg/kg of each Kir2.1 inhibitor (i.v. dosing, 4 compounds +1 control, total dose 1 mg/kg) with PK measured across set time points up to 24 h. Additionally, a separate cohort of animals was utilized to assess total plasma-brain levels (PBL, ratio reported as Kp) of compound at a 0.25 time point. In this fashion, standard plasma-based PK parameters (elimination t 1/2, […] (MRT), plasma clearance (CLp), and volume of distribution (Vss)) were measured alongside a parallel assessment of total brain exposure.
PK PBL Cassette Experimental Conditions
4 compounds plus one control were formulated as a solution in ethanol, PEG400, and DMSO (1:3:6 v/v, respectively) at a concentration of 1 mg/mL and administered as a single IV dose (1 mL/kg, 0.2 mg/kg per compound, total 1 mg/kg) to male, Sprague Dawley rats (n = 1) via injection into a surgically -implanted jugular vein catheter. Blood samples were collected serially from a surgically implanted carotid artery catheter in each animal over multiple post -administration time points (0.033, 0.117, 0.25, 0.5, 1, 2, 4, 7, and 24 hours) into chilled, K 2EDTA anticoagulant - fortified tubes and immediately placed on wet ice. The blood samples were then centrifuged (1700 rcf, 5 minutes, 4 °C) to ob tain plasma samples, which were stored at -80 °C until analysis […]
For determination of the brain over plasma ratio (K p), the same cassette of compounds plus control were formulated in ethanol, PEG400, and DMSO (1:3:6 v/v, respectively) and administered as a single IV dose (1 mL/kg, 0.2 mg/kg per compound, total 1 mg/kg) to male, Sprague Dawley rats ( n = 1) via injection into a surgically-implanted jugular vein catheter. At 15 min post dosing, blood sample was collected terminally into chilled, K 2EDTA anticoagulant-fortified tube and immediately placed on wet ice. The bloo d sample was then centrifuged (1700 rcf, 5 minutes, 4 °C) to obtain plasma sample. At the same post-administration time point, whole brain sample was obtained by rapid dissection, rinsed with PBS, and immediately frozen in individual tissue collection box (dry ice). All brain and plasma samples were stored at -80 °C until […]
Samples preparation for bioanalysis
Plasma samples from the in-life phase of the study were thawed at ambient temperature (benchtop), and then aliquots (20 µL per sample) were transferred to a 96-shallow-well (V-bottom) plate. Matrix-matched quality control (QC) samples and a standard curve of each analyte (1 mg/mL DMSO stock solution) were prepared in blank rat plasma (K2EDTA-treated) via serial dilution and transferred (20 µL each) to the plate along with multiple blank plasma samples. MeCN (120 µL) containing IS (10 nM carbamazepine) was added to each well of the plate to precipitate protein. The plate was then centrifuged (4000 rcf, 5 minutes, ambient temperature), and resulting supernatants (60 µL each) were transferred to a new 96-shallow-well (V-bottom) plate containing an equal volume (60 µL per well) of water (Milli-Q purified). The plate was then sealed in preparation for LC-MS/MS analysis.
Preparation of brain samples was identical to that of plasma samples except for the following modifications. While thawing, brains were weighed (inside their collection boxes using a universal empty collection box tare weight) and then subjected to mechanical homogenization […]

[1] = Sprague-Dawley, plasma, iv, read-out: AUC
[2] = Sprague-Dawley, plasma, iv, read-out: MRT

Row | Structure (SMILES) | Kp at 0.25 h (Sprague-Dawley, iv) | AUC [1] [ng·h/mL] | clearance (Sprague-Dawley, plasma, iv) [mL/min/kg] | half-life (Sprague-Dawley, plasma, iv) [h] | MRT [2] [h] | Vd (Sprague-Dawley, plasma, iv) [L/kg] | Kp (total brain to plasma ratio) | AUC [ng·h/mL] | CLp [mL/min/kg] | Elim. t1/2 [h] | MRT [h] | Vss [L/kg] | Fold longer t1/2 compared to ML133 (rat i.v. cassette) [fold] | Fold lower overall plasma clearance compared to ML133 (rat i.v. cassette) [fold]
1 | [2H]C([2H])([2H])Oc1ccc(CNCc2ccc(-c3cccc(OC)c3)cc2)cc1 [Compound 9] |  |  |  |  |  |  | 2.15 | 131 | 25.4 | 1.56 | 1.02 | 1.55 |  | 
2 | [2H]C([2H])([2H])Oc1ccc(CNCc2ccc(-c3cccc(OC([2H])([2H])[2H])c3)cc2)cc1 [Compound 13] |  |  |  |  |  |  | 2.06 | 126 | 26.4 | 1.59 | 1.00 | 1.58 |  | 
3 | [2H]C([2H])([2H])Oc1cccc(-c2ccc(CNCc3ccc(OC)cc3)cc2)c1 [Compound 11] |  |  |  |  |  |  | 1.94 | 127 | 26.2 | 1.54 | 0.81 | 1.27 |  | 
4 | [2H]C([2H])([2H])Oc1ccc(CNCc2cccc3ccccc23)cc1 [Compound 7] | 3.3 | 146 | 22.8 | 1.39 | 1.24 | 1.7 |  |  |  |  |  |  | ~2 | ~1.4

Now from value to compound:

Row | Kp at 0.25 h (Sprague-Dawley, iv) | AUC [1] [ng·h/mL] | clearance (Sprague-Dawley, plasma, iv) [mL/min/kg] | half-life (Sprague-Dawley, plasma, iv) [h] | MRT [2] [h] | Vd (Sprague-Dawley, plasma, iv) [L/kg] | Kp (total brain to plasma ratio) | AUC [ng·h/mL] | CLp [mL/min/kg] | Elim. t1/2 [h] | MRT [h] | Vss [L/kg] | Fold longer t1/2 compared to ML133 (rat i.v. cassette) [fold] | Fold lower overall plasma clearance compared to ML133 (rat i.v. cassette) [fold] | Structure (SMILES)
5 | 1.25 | 165 | 20.2 | 1.66 | 0.99 | 1.2 |  |  |  |  |  |  |  |  | COc1ccc(CNCc2ccc(-c3cccc(C#N)c3)cc2)cc1 [Compound 5t]
6 | 1.82 | 148 | 22.6 | 1.68 | 1.08 | 1.46 |  |  |  |  |  |  |  |  | COc1ccc(CNCc2ccc(-c3ccccc3)cc2)cc1 [Compound 5k]
7 | 1.81 | 189 | 17.7 | 1.56 | 0.99 | 1.06 |  |  |  |  |  |  |  |  | COc1ccc(CNCc2ccc(-c3cccc(OC)c3)cc2)cc1 [Compound 5s, 1-(3′-Methoxy-[1,1’-biphenyl]-4-yl)-N-(4-methoxybenzyl)methanamine]
8 | 2.13 | 110 | 30.4 | 1.33 | 0.87 | 1.58 |  |  |  |  |  |  |  |  | COc1ccc(CNCc2ccc3c(c2)OC(F)(F)O3)cc1 [Compound 5h]
9 | 4.23 | 105 | 31.7 | 1.18 | 1 | 1.9 |  |  |  |  |  |  |  |  | COc1ccc(CNCc2cccc(-c3ccccc3)c2)cc1 [Compound 5j]
10 | 2.27 | 109 | 30.6 | 0.69 | 0.76 | 1.39 |  |  |  |  |  |  |  |  | COc1ccc(CNCc2ccc(-c3cccc(F)c3)cc2)cc1 [Compound 5p]
11 | 3.36 | 104 | 31.9 | 0.75 | 0.78 | 1.5 |  |  |  |  |  |  |  |  | COc1ccc(CNCc2cccc3ccccc23)cc1 [ML133, N-(4-methoxybenzyl)-1-(naphthalen-1-yl)methanamine, reference compound]
